Measurements reported in patent US20250325534A1, “MICROBIOCIDAL TETRAHYDROISOQUINOLINE DERIVATIVES” (SYNGENTA CROP PROTECTION AG, priority 2021, published 2025).

Tests used:
Alternaria solani = Alternaria solani / tomato / leaf disc (early blight); assay type: in vivo; conditions: foliar, inoculated 2 days after application, vs untreated control
Experimental: Example B1: Alternaria solani/Tomato/Leaf Disc (Early Blight) Tomato leaf disks cv. Baby are placed on agar in multiwell plates (24-well format) and sprayed with the formulated test compound diluted in water. The leaf disks are inoculated with a spore suspension of the fungus 2 days after application. The inoculated leaf disks are incubated at 23° C./21° C. (day/night) and 80% relative humidity under a light regime of 12 h/12 h (light/dark) in a climate cabinet and the activity of a compound is assessed as percent disease control compared to untreated when an appropriate level of disease damage appears on untreated check disk leaf disks (5-7 days after application).

Mycosphaerella arachidis = Mycosphaerella arachidis (Cercospora arachidicola) / liquid culture (early leaf spot); assay type: cell-based; conditions: 96 h, photometrically 4-5 days after application, read-out: control of Mycosphaerella arachidis
Procedure, shortened: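 Photometric growth inhibition, read 4-5 days post-application at 24 °C, of Cercospora arachidicola spores suspended in potato dextrose broth and exposed to test compound delivered from DMSO solution.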

Monographella nivalis = Monographella nivalis (Microdochium nivale) / liquid culture (foot rot cereals); assay type: cell-based; conditions: 96 h, photometrically 4-5 days after application, read-out: control of Monographella nivalis
Procedure, shortened: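 Test compound, applied as a DMSO solution, was challenged with fungal spores suspended in potato dextrose broth; after 4-5 days at 24° C, photometric readout gave inhibition of growth.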

Glomerella lagenarium = Glomerella lagenarium (Colletotrichum lagenarium) / liquid culture (anthracnose); assay type: cell-based; conditions: Colletotrichum orbiculare, 72 h, photometrically 3-4 days after application, read-out: control of Glomerella lagenarium
Experimental: (§1) Example B5: Glomerella Lagenarium (Colletotrichum Lagenarium)/Liquid Culture (Anthracnose) Conidia of the fungus from cryogenic storage are directly mixed into a nutrient broth (potato dextrose broth). After placing a DMSO solution of test compound into a microtiter plate (96-well format), the nutrient broth containing the fungal spores is added. The test plates are incubated at 24° C. and the inhibition of growth is measured photometrically 3-4 days after application.

[1] = system: Mycosphaerella graminicola; assay: Mycosphaerella graminicola (Septoria tritici) / liquid culture (Septoria blotch); assay type: cell-based; conditions: Zymoseptoria tritici, 96 h, photometrically 4-5 days after application, read-out: control of Mycosphaerella graminicola
Procedure, shortened: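 Growth inhibition measured by photometry 4-5 days post application, at 24° C incubation. Test compound supplied as DMSO solution; fungal conidia from cryostorage suspended directly in potato dextrose broth as inoculum.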

Botryotinia fuckeliana = Botryotinia fuckeliana (Botrytis cinerea) / liquid culture (gray mould); assay type: cell-based; conditions: 72 h, growth inhibition photometrically 3-4 days after application, read-out: control of Botryotinia fuckeliana
Experimental: as §1, with “B2: Botryotinia Fuckeliana (Botrytis cinerea)/Liquid” for “B5: Glomerella Lagenarium (Colletotrichum Lagenarium)/Liquid”, “(Gray Mould)” for “(Anthracnose)”, “(Vogels” for “(potato dextrose”, “determined” for “measured”

Phaeosphaeria nodorum = Phaeosphaeria nodorum (Septoria nodorum) / wheat / leaf disc preventative (glume blotch); assay type: in vivo; conditions: Parastagonospora nodorum, foliar, inoculated 2 days after application
Experimental: Example B9: Phaeosphaeria nodorum (Septoria nodorum)/Wheat/Leaf Disc Preventative (Glume Blotch) Wheat leaf segments cv. Kanzler are placed on agar in a multiwell plate (24-well format) and sprayed with the formulated test compound diluted in water. The leaf disks are inoculated with a spore suspension of the fungus 2 days after application. The inoculated test leaf disks are incubated at 20° C. and 75% relative humidity under a light regime of 12 h light/12 h darkness in a climate cabinet and the activity of a compound is assessed as percent disease control compared to untreated when an appropriate level of disease damage appears in untreated check leaf disks (5-7 days after application).

Cn1cc(C2CN(C(=O)c3cc(-c4ccccc4)on3)Cc3ccccc32)cn1 (single isomer, unassigned) [Compound P-165]
≥ 80%: pest or weed control at 200 ppm (Alternaria solani) | inhibition of growth at 20 ppm (Mycosphaerella arachidis) | inhibition of growth at 20 ppm (Monographella nivalis) | inhibition of growth at 20 ppm (Glomerella lagenarium) | inhibition of growth at 20 ppm [1]

Cn1cc(C2CN(C(=O)c3nnc(-c4ccc(F)cc4F)s3)Cc3ccccc32)cn1 (stereo not shown) [Compound P-1, [5-(2,4-difluorophenyl)-1,3,4-thiadiazol-2-yl]-[4-(1-methylpyrazol-4-yl)-3,4-dihydro-1H-isoquinolin-2-yl]methanone]
≥ 80%: inhibition of growth at 20 ppm (Mycosphaerella arachidis) | inhibition of growth at 20 ppm (Monographella nivalis) | inhibition of growth at 20 ppm (Glomerella lagenarium) | inhibition of growth at 20 ppm (Botryotinia fuckeliana) | inhibition of growth at 20 ppm [1]

Cc1c(C2(C)CN(C(=O)c3cc(-c4ccc(F)cc4F)on3)C(C)c3ccccc32)cnn1C (stereo not shown) [Compound P-16, [5-(2,4-difluorophenyl)isoxazol-3-yl]-[4-(1,5-dimethylpyrazol-4-yl)-1,4-dimethyl-1,3-dihydroisoquinolin-2-yl]methanone]
≥ 80%: inhibition of growth at 20 ppm (Mycosphaerella arachidis) | inhibition of growth at 20 ppm (Monographella nivalis) | inhibition of growth at 20 ppm (Glomerella lagenarium) | inhibition of growth at 20 ppm (Botryotinia fuckeliana) | inhibition of growth at 20 ppm [1]

COc1ccc2c(c1)C(c1cnn(C)c1)CN(C(=O)c1cc(-c3ccc(F)cc3F)on1)C2C (stereo not shown) [Compound P-47, [5-(2,4-difluorophenyl)isoxazol-3-yl]-[6-methoxy-1-methyl-4-(1-methylpyrazol-4-yl)-3,4-dihydro-1H-isoquinolin-2-yl]methanone]
≥ 80%: inhibition of growth at 20 ppm (Mycosphaerella arachidis) | inhibition of growth at 20 ppm (Monographella nivalis) | inhibition of growth at 20 ppm (Glomerella lagenarium) | inhibition of growth at 20 ppm (Botryotinia fuckeliana) | inhibition of growth at 20 ppm [1]

Cn1cc(C2CN(C(=O)c3noc(-c4cccc(F)c4)n3)Cc3ccccc32)cn1 (stereo not shown) [Compound P-92, [5-(3-fluorophenyl)-1,2,4-oxadiazol-3-yl]-[4-(1-methylpyrazol-4-yl)-3,4-dihydro-1H-isoquinolin-2-yl]methanone]
≥ 80%: pest or weed control at 200 ppm (Alternaria solani) | inhibition of growth at 20 ppm (Mycosphaerella arachidis) | inhibition of growth at 20 ppm (Monographella nivalis) | inhibition of growth at 20 ppm (Glomerella lagenarium) | inhibition of growth at 20 ppm [1]

Cn1cc(C2CN(C(=O)c3cc(-c4ccc(F)cc4F)on3)Cc3cc(F)ccc32)cn1 (stereo not shown) [Compound P-134, [5-(2,4-difluorophenyl)isoxazol-3-yl]-[7-fluoro-4-(1-methylpyrazol-4-yl)-3,4-dihydro-1H-isoquinolin-2-yl]methanone]
≥ 80%: pest or weed control at 200 ppm (Alternaria solani) | inhibition of growth at 20 ppm (Mycosphaerella arachidis) | inhibition of growth at 20 ppm (Monographella nivalis) | inhibition of growth at 20 ppm [1]

Cn1cc(C2CN(C(=O)c3cc(-c4ccc(F)cc4F)on3)Cc3ccc(F)cc32)cn1 (stereo not shown) [Compound P-135, [5-(2,4-difluorophenyl)isoxazol-3-yl]-[6-fluoro-4-(1-methylpyrazol-4-yl)-3,4-dihydro-1H-isoquinolin-2-yl]methanone]
≥ 80%: inhibition of growth at 20 ppm (Mycosphaerella arachidis) | inhibition of growth at 20 ppm (Monographella nivalis) | inhibition of growth at 20 ppm (Botryotinia fuckeliana) | inhibition of growth at 20 ppm [1]

Cn1cc(C2CN(C(=O)c3nc(-c4ccccc4)no3)Cc3ccccc32)cn1 (stereo not shown) [Compound P-152, [4-(1-methylpyrazol-4-yl)-3,4-dihydro-1H-isoquinolin-2-yl]-(3-phenyl-1,2,4-oxadiazol-5-yl)methanone]
≥ 80%: inhibition of growth at 20 ppm (Mycosphaerella arachidis) | inhibition of growth at 20 ppm (Monographella nivalis) | inhibition of growth at 20 ppm (Glomerella lagenarium) | inhibition of growth at 20 ppm (Botryotinia fuckeliana) | inhibition of growth at 20 ppm [1]

Cn1cc(C2CN(C(=O)c3cc(-c4ccccc4F)no3)Cc3ccccc32)cn1 (stereo not shown) [Compound P-154, [3-(2-fluorophenyl)isoxazol-5-yl]-[4-(1-methylpyrazol-4-yl)-3,4-dihydro-1H-isoquinolin-2-yl]methanone]
≥ 80%: inhibition of growth at 20 ppm (Mycosphaerella arachidis) | inhibition of growth at 20 ppm (Monographella nivalis) | inhibition of growth at 20 ppm (Glomerella lagenarium) | inhibition of growth at 20 ppm (Botryotinia fuckeliana) | inhibition of growth at 20 ppm [1]

Cn1cc(C2CN(C(=O)c3cc(-c4ccccc4)no3)Cc3ccccc32)cn1 (stereo not shown) [Compound P-158, [4-(1-methylpyrazol-4-yl)-3,4-dihydro-1H-isoquinolin-2-yl]-(3-phenylisoxazol-5-yl)methanone]
≥ 80%: pest or weed control at 200 ppm (Alternaria solani) | inhibition of growth at 20 ppm (Mycosphaerella arachidis) | inhibition of growth at 20 ppm (Monographella nivalis) | inhibition of growth at 20 ppm (Glomerella lagenarium) | inhibition of growth at 20 ppm (Botryotinia fuckeliana) | inhibition of growth at 20 ppm [1]

Cn1cc(C2CN(C(=O)c3cc(-c4cccc(F)c4)no3)Cc3ccccc32)cn1 (stereo not shown) [Compound P-159, [3-(3-fluorophenyl)isoxazol-5-yl]-[4-(1-methylpyrazol-4-yl)-3,4-dihydro-1H-isoquinolin-2-yl]methanone]
≥ 80%: inhibition of growth at 20 ppm (Mycosphaerella arachidis) | inhibition of growth at 20 ppm (Monographella nivalis) | inhibition of growth at 20 ppm (Botryotinia fuckeliana) | inhibition of growth at 20 ppm [1]

Cn1cc(C2CN(C(=O)c3nnc(-c4ccccc4)s3)Cc3ccccc32)cn1 (stereo not shown) [Compound P-162, [4-(1-methylpyrazol-4-yl)-3,4-dihydro-1H-isoquinolin-2-yl]-(5-phenyl-1,3,4-thiadiazol-2-yl)methanone]
≥ 80%: inhibition of growth at 20 ppm (Mycosphaerella arachidis) | inhibition of growth at 20 ppm (Monographella nivalis) | inhibition of growth at 20 ppm (Glomerella lagenarium) | inhibition of growth at 20 ppm (Botryotinia fuckeliana) | inhibition of growth at 20 ppm [1]

Cn1cc(C2CN(C(=O)c3cc(-c4ccsc4)on3)Cc3ccccc32)cn1 (stereo not shown) [Compound P-181, [4-(1-methylpyrazol-4-yl)-3,4-dihydro-1H-isoquinolin-2-yl]-[5-(3-thienyl)isoxazol-3-yl]methanone]
≥ 80%: pest or weed control at 200 ppm (Alternaria solani) | inhibition of growth at 20 ppm (Mycosphaerella arachidis) | inhibition of growth at 20 ppm (Glomerella lagenarium) | inhibition of growth at 20 ppm [1]

Cn1cc(C2CN(C(=O)c3cc(-c4ccccc4F)on3)Cc3ccccc32)cn1 (stereo not shown) [Compound P-191, [5-(2-fluorophenyl)isoxazol-3-yl]-[4-(1-methylpyrazol-4-yl)-3,4-dihydro-1H-isoquinolin-2-yl]methanone]
≥ 80%: pest or weed control at 200 ppm (Alternaria solani) | inhibition of growth at 20 ppm (Mycosphaerella arachidis) | inhibition of growth at 20 ppm (Monographella nivalis) | inhibition of growth at 20 ppm (Glomerella lagenarium) | inhibition of growth at 20 ppm [1]

Cn1cc(C2CN(C(=O)c3cc(-c4ccc(F)cc4)on3)Cc3ccccc32)cn1 (stereo not shown) [Compound P-192, [5-(4-fluorophenyl)isoxazol-3-yl]-[4-(1-methylpyrazol-4-yl)-3,4-dihydro-1H-isoquinolin-2-yl]methanone]
≥ 80%: inhibition of growth at 20 ppm (Glomerella lagenarium) | inhibition of growth at 20 ppm (Botryotinia fuckeliana) | inhibition of growth at 20 ppm [1]

Cc1ccc(-c2cc(C(=O)N3Cc4ccccc4C(c4cnn(C)c4)C3)no2)cc1 (stereo not shown) [Compound P-204, [4-(1-methylpyrazol-4-yl)-3,4-dihydro-1H-isoquinolin-2-yl]-[5-(p-tolyl)isoxazol-3-yl]methanone]
≥ 80%: pest or weed control at 200 ppm (Phaeosphaeria nodorum) | inhibition of growth at 20 ppm [1]

Cn1cc([C@@]2(C)CN(C(=O)c3nnc(-c4ccc(F)cc4F)s3)Cc3ccccc32)cn1 [Compound P-209, [5-(2,4-difluorophenyl)-1,3,4-thiadiazol-2-yl]-[(4S)-4-methyl-4-(1-methylpyrazol-4-yl)-1,3-dihydroisoquinolin-2-yl]methanone]
≥ 80%: inhibition of growth at 20 ppm (Mycosphaerella arachidis) | inhibition of growth at 20 ppm (Monographella nivalis) | inhibition of growth at 20 ppm (Glomerella lagenarium) | inhibition of growth at 20 ppm (Botryotinia fuckeliana) | inhibition of growth at 20 ppm [1]

CC1c2ccc(Br)cc2C(C)(c2cnn(C)c2)CN1C(=O)c1cc(-c2ccc(F)cc2F)on1 (stereo not shown) [Compound P-215, [6-bromo-1,4-dimethyl-4-(1-methylpyrazol-4-yl)-1,3-dihydroisoquinolin-2-yl]-[5-(2,4-difluorophenyl)isoxazol-3-yl]methanone]
≥ 80%: inhibition of growth at 20 ppm (Mycosphaerella arachidis) | inhibition of growth at 20 ppm (Monographella nivalis) | inhibition of growth at 20 ppm (Glomerella lagenarium) | inhibition of growth at 20 ppm (Botryotinia fuckeliana) | inhibition of growth at 20 ppm [1]
